Our source for the EC50 values is patent publication US9896441B2 (Lycera Corporation, priority 2014, dated 2018).

The target of one assay is T1, Gal4-RORγ-LBD (Homo sapiens, UniProt P51449).
T1 construct: expressed in transfected cells
T1 sequence (P51449 269-508 limits assumed): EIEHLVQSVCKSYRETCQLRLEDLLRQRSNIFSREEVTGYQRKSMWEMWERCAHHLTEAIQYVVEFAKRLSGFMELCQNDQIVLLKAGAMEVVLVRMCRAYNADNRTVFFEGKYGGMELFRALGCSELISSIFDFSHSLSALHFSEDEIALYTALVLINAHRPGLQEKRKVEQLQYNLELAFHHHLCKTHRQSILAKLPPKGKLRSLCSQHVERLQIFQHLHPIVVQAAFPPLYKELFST
Nature of the assay: Gal4-RORγ Luciferase Reporter Assay in HEK-293T Cells. Type of assay: cell-based. The note with it: HEK-293 cells, ursolic acid present, luciferase readout. The method, boiled down: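 HEK-293 cells were co-transfected with Gal4-RORγ-LBD and a Gal4-luciferase reporter, then exposed overnight at 37 °C to compounds with […] ursolic acid present (0.2% DMSO). Luminescence was read with One-Glo after 10 min at RT, untreated signal was set as 100, and Max Response was taken as the upper plateau of a 4-parameter logistic fit.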
For orientation: Reporter assays use an easily measured gene product as a stand-in for the process of interest.

In a further assay the target is T2, RORγ-LBD (Homo sapiens, UniProt P51449).
T2 construct: made in house; host or cells: SF9 cells (baculovirus); used as diluted lysate
T2 sequence (P51449 269-508 limits assumed): T1 sequence (P51449 269-508 limits assumed)
Nature of the assay: RORγ-Ligand Binding Domain (LBD) TR-FRET Assay. In kind it is biochemical. The note with it: with 2 μM ursolic acid (RORγ antagonist); highest test concentration 10 μM. The method, boiled down:
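His-tagged RORγ-LBD from SF9 baculovirus lysate, ~3 nM final, in 50 mM Tris pH 7.0, 50 mM KCl, 1 mM EDTA, 0.1 mM DTT, 0.01% BSA. Biotinylated SRC1 LXXLL peptide at 200 nM final with 2 μM ursolic acid; TR-FRET read-out, 1% DMSO final.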
(In general: Time-resolved FRET reads energy transfer from a long-lived donor to a nearby acceptor.)

In the case of `O=C(O)CC[C@H]1CN(S(=O)(=O)c2cccc(C(F)(F)F)c2)c2cc(C3CCCCC3)ccc2O1` [Example 194, (S)-3-(6-cyclohexyl-4-((3-(trifluoromethyl)phenyl)sulfonyl)-3,4-dihydro-2H-benzo[b][1,4]oxazin-2-yl)propanoic acid], the EC50 on Gal4-RORγ-LBD and on RORγ-LBD was less than 0.5 µM each time.
Take `O=C(O)CCC[C@H]1CN(S(=O)(=O)c2cc(C(F)(F)F)cnc2OCCO)c2cc(/C=C/c3c(F)cccc3Cl)ccc2O1` [Example 195B, (S,E)-4-(6-(2-chloro-6-fluorostyryl)-4-((2-(2-hydroxyethoxy)-5-(trifluoro-methyl)pyridin-3-yl)sulfonyl)-3,4-dihydro-2H-benzo[b][1,4]-oxazin-2-yl)butanoic acid]: the EC50 on Gal4-RORγ-LBD and at RORγ-LBD was less than 0.5 µM in each case.
Turning to `COC(=O)CCC[C@H]1CN(S(=O)(=O)c2cc(C(F)(F)F)cnc2OCCO)c2cc(/C=C/c3c(F)cccc3Cl)ccc2O1` [Example 195C, methyl (S,E)-4-(6-(2-chloro-6-fluorostyryl)-4-((2-(2-hydroxyethoxy)-5-(trifluoro-methyl)pyridin-3-yl)sulfonyl)-3,4-dihydro-2H-benzo[b][1,4]-oxazin-2-yl)butanoate], the EC50 (usually the concentration that produces a half-maximal response) is 0.5 to 5 µM on Gal4-RORγ-LBD and less than 0.5 µM at RORγ-LBD.
The corresponding values for `O=C(O)CCC[C@H]1CN(S(=O)(=O)c2cccc(C(F)(F)F)c2)c2cc(/C=C/c3c(F)cccc3Cl)ccc2O1` [Example 195D, (S,E)-4-(6-(2-chloro-6-fluorostyryl)-4-((3-(trifluoro-methyl)phenyl)sulfonyl)-3,4-dihydro-2H-benzo[b][1,4]oxazin-2-yl)butanoic acid] are less than 0.5 µM and less than 0.5 µM.
In the same order, the values of `COC(=O)CCC[C@H]1CN(S(=O)(=O)c2cccc(C(F)(F)F)c2)c2cc(/C=C/c3c(F)cccc3Cl)ccc2O1` [Example 195E, methyl (S,E)-4-(6-(2-chloro-6-fluorostyryl)-4-((3-(trifluoro-methyl)phenyl)sulfonyl)-3,4-dihydro-2H-benzo[b][1,4]oxazin-2-yl)butanoate] are 0.5 to 5 µM and less than 0.5 µM.
The corresponding values for `CCC(=Cc1ccc2c(c1)N(S(=O)(=O)c1cccc(C(F)(F)F)c1)C[C@H](CCCC(=O)O)O2)CC` [Example 195F, (S)-4-(6-(2-ethylbut-1-en-1-yl)-4-((3-(trifluoromethyl)phenyl)-sulfonyl)-3,4-dihydro-2H-benzo[b][1,4]oxazin-2-yl)butanoic acid] are less than 0.5 µM and less than 0.5 µM.
